We go through six molecules from ChEMBL document CHEMBL5465560, “Selectivity Literature for EUbOPEN Chemogenomic Library” (2024).

The structures appear in SMILES notation.

Experiment [1] has as its target T1, Ephrin type-B receptor 2 (Homo sapiens) (UniProt P29323).
T1 sequence (whole entry): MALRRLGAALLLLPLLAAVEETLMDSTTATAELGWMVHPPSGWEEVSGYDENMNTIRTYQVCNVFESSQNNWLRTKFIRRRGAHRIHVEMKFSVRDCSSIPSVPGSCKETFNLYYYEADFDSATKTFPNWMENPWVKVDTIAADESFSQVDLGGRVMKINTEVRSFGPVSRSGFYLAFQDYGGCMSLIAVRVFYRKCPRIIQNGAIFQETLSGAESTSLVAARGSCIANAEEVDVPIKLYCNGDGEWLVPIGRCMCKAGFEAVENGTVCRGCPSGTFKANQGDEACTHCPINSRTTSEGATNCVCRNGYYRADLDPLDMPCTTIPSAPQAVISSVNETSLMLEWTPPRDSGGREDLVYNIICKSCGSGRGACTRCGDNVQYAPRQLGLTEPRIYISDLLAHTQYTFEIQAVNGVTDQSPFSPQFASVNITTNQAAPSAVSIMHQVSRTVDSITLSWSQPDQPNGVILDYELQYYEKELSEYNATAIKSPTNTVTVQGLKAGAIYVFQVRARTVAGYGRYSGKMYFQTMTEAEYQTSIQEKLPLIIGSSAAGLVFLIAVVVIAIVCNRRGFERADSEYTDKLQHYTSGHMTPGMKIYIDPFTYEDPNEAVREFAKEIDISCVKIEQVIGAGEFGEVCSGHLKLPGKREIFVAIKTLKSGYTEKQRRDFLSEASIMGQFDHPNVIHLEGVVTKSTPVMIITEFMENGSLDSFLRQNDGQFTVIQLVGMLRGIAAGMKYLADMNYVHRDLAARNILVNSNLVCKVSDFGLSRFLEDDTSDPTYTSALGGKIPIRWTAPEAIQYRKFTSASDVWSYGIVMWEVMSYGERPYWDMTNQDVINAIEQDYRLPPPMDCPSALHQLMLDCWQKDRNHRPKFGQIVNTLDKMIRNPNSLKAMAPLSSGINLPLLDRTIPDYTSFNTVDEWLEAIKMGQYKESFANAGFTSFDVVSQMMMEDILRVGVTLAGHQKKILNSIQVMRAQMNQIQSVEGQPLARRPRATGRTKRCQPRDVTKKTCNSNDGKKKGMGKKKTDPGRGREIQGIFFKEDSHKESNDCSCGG
In words: Selectivity interaction (Millipore kinase profiler) EUB0000124b EPHB2. The note with it: at 10 µM.

Experiment [2] deals with T2, Discoidin domain-containing receptor 2 (Homo sapiens) (UniProt Q16832).
T2 sequence (whole entry): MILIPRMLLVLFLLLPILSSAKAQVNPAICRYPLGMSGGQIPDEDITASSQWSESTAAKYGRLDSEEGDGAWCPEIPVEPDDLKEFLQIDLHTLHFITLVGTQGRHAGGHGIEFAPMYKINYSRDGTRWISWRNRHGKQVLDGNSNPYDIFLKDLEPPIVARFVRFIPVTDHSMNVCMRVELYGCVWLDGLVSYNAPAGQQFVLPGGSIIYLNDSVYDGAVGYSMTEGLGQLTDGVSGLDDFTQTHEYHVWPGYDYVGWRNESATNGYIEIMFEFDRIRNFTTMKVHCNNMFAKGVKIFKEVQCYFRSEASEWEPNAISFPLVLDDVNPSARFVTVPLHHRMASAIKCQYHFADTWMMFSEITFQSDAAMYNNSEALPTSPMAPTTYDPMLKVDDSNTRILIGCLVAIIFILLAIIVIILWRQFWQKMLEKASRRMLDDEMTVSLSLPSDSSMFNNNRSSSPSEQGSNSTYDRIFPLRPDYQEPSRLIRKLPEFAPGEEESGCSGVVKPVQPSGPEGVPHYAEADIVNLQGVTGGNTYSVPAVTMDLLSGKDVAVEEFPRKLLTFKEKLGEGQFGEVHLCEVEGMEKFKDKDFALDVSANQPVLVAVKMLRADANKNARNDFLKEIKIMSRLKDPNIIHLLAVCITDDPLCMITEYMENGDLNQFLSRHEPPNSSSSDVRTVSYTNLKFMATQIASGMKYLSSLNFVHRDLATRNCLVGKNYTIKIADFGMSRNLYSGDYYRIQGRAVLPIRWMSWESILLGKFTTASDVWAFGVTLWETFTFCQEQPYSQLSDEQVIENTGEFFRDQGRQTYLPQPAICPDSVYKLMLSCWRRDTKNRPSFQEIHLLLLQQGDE
In words: Selectivity interaction (KinomeScan (DiscoverX)) EUB0000092b DDR2. The conditions noted are these: at 10 µM.

Experiment [3] addresses Serine/threonine-protein kinase WNK1 (Homo sapiens) (UniProt Q9H4A3). As to the kind of experiment: Selectivity interaction (ActivX KiNativ screen (kinase selectivity in THP-1 cell lysates)) EUB0000639a WNK1. Format: subcellular. The note with it: lysate.
For experiment [4], the target named is T3, Serine/threonine-protein kinase RIO3 (Homo sapiens) (UniProt O14730).
T3 sequence (whole entry): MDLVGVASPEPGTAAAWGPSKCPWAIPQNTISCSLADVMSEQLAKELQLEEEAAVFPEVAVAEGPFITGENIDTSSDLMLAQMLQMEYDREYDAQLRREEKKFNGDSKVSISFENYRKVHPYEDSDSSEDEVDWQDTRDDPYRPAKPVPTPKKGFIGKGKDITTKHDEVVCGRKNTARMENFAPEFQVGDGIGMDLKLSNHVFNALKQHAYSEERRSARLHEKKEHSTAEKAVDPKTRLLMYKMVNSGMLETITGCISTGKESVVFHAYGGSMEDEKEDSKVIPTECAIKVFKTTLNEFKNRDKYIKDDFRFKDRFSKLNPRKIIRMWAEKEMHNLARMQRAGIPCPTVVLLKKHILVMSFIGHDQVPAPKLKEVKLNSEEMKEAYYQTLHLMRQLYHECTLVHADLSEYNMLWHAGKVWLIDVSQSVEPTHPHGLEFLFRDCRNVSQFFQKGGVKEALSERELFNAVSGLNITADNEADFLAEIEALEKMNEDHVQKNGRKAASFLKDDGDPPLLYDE
In words: Selectivity interaction (KinomeScan (DiscoverX)) EUB0000229b RIOK3. The conditions noted are these: at 10 µM.

Experiment [5] concerns the target Alpha-2A adrenergic receptor (Homo sapiens, UniProt P08913). In words: Selectivity interaction (Alpha2A calcium flux assay ) EUB0000877a ADRA2A.
The target of experiment [6] is Tyrosine-protein kinase Fgr (Homo sapiens) (UniProt P09769). As to the kind of experiment: Selectivity interaction (KinomeScan (DiscoverX)) EUB0000618a FGR. The note with it: at 10 µM.
Chain of Tyrosine-protein kinase Fgr (Homo sapiens) (P09769 2-529 limits assumed): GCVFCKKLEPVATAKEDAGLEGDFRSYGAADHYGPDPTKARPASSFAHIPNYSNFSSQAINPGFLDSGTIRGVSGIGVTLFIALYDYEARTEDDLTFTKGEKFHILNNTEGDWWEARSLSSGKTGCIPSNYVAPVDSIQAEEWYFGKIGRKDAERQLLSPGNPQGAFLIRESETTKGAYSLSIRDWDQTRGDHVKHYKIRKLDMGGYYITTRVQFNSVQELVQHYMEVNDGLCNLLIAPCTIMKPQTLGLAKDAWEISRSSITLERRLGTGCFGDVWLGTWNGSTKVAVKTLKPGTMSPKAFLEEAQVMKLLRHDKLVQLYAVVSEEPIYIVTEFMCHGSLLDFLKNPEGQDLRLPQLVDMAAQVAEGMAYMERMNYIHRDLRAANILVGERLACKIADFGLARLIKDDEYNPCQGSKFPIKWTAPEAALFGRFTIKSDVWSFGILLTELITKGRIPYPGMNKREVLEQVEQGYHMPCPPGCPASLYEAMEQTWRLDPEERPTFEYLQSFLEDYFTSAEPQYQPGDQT

Chain of Serine/threonine-protein kinase WNK1 (Homo sapiens) (Q9H4A3 whole entry, looked up): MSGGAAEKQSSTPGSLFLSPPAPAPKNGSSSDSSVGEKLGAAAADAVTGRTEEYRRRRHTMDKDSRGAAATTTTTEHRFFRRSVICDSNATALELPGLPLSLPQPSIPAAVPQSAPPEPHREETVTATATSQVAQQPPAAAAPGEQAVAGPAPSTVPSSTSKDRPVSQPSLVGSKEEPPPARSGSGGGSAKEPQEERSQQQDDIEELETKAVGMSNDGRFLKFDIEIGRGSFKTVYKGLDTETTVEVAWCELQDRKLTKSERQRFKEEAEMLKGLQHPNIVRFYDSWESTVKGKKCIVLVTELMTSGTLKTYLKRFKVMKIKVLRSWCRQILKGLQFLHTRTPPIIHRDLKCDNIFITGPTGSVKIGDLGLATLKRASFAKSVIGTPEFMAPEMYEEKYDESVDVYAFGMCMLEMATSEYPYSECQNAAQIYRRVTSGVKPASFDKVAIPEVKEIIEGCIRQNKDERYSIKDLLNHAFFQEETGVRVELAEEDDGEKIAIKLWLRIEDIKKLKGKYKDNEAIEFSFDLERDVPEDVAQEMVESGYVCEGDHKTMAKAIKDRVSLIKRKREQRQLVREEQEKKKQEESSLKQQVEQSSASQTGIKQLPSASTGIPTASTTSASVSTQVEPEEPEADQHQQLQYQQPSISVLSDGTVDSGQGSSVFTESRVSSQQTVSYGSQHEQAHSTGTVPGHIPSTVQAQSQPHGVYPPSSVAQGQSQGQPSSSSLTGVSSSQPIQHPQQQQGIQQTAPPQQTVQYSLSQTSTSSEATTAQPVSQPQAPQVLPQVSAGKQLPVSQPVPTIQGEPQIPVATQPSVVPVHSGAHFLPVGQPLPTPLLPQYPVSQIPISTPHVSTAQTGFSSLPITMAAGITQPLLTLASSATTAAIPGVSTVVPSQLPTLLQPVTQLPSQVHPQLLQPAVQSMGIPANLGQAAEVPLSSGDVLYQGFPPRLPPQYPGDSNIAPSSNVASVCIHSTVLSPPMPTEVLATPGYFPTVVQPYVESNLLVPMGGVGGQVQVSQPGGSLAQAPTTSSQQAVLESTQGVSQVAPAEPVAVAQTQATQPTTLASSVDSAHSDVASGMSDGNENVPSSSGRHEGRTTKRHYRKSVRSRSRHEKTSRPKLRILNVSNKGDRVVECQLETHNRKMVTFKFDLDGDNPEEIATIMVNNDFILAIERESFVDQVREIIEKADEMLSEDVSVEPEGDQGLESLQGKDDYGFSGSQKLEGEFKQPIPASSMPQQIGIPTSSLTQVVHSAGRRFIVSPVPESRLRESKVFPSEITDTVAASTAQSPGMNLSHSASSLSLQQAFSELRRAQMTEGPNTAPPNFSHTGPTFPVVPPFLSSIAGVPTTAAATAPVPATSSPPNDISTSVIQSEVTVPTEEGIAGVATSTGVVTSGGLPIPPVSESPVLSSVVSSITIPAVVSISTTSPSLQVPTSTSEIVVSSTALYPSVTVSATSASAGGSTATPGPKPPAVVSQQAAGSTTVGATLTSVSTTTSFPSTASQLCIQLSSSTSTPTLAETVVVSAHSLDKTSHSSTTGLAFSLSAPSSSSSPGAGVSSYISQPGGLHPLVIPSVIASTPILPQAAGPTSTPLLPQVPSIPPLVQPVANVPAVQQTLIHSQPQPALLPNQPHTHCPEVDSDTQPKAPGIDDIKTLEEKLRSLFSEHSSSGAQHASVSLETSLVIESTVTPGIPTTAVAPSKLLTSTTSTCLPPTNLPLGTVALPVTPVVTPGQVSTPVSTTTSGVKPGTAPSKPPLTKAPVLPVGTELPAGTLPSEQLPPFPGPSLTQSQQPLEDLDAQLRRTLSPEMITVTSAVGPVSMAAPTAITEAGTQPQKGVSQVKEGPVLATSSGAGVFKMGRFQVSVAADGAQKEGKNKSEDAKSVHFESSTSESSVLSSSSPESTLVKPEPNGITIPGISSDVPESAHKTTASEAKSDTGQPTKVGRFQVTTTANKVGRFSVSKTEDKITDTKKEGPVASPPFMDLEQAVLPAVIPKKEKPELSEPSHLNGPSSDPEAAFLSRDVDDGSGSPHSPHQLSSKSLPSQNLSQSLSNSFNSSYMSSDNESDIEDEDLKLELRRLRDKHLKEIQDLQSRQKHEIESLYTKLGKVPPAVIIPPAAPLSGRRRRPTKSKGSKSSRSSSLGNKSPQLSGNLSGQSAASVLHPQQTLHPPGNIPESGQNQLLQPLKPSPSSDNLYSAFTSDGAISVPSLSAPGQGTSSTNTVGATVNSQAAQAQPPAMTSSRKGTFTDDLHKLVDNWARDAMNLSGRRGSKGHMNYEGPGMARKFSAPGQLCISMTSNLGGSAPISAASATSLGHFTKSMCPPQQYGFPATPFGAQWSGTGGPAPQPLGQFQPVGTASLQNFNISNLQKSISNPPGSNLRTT
Chain of Alpha-2A adrenergic receptor (P08913 whole entry): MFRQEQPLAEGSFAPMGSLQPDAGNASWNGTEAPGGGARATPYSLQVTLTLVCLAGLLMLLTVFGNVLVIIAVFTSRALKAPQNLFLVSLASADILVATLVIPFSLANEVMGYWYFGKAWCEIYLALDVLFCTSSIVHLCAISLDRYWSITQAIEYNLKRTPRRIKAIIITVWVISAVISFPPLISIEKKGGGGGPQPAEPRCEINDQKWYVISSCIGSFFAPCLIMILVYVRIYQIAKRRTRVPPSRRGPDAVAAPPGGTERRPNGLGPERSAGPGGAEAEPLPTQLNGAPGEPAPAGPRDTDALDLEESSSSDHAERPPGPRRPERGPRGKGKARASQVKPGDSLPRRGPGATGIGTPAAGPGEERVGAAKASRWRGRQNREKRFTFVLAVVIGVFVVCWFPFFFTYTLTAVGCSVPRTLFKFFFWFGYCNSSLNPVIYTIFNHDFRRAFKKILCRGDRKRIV

Consider `CC(=O)Nc1cccc(-n2c(=O)n(C3CC3)c(=O)c3c(Nc4ccc(I)cc4F)n(C)c(=O)c(C)c32)c1`, for which the % of control in experiment [1] was 107%.

On to `CCC(=O)N1CCN(c2ccc(-n3c(=O)ccc4cnc5ccc(-c6cnc7ccccc7c6)cc5c43)cc2C(F)(F)F)CC1`, for which, in experiment [2], the % of control was 100%.

On to `CC[C@@H]1[C@H](F)C(=O)N[C@@H]1COc1nccc2cc(C(N)=O)c(OC)cc12` [ZIMLOVISERTIB], for which the % of inhibition in experiment [3] (at 0.01 µM) was determined as 10.1%; in experiment [3] (at 0.04 µM), 23.3%; in experiment [3] (at 0.2 µM), 9.7%; in experiment [3] (at 1 µM) it was 3.1%; in experiment [3] (at 5 µM) it was 3%.

In experiment [4], `COc1cc(N(C)c2ccnc3ccc(C(F)(F)F)cc23)cc(OC)c1OC` registered a % binding of 90%.

`CCC(=O)N1CC[C@H](Nc2ncnc3c2CN(c2cnc(OC)c(C(F)(F)F)c2)CC3)C1` [LENIOLISIB]: the IC50 in experiment [5] is > 30 µM.

Take `O[C@H]1CC[C@H](Nc2ncc3nc(Nc4c(F)cc(F)cc4F)n([C@H]4CCOC4)c3n2)CC1`: the % of control in experiment [6] amounted to 84%.

By IC50 is commonly meant the concentration at which inhibition is half-maximal.
